# Data: US20050053680A1, “Pediculicidal compound” (priority 2002, published 2005)
# Like-named read-outs stand apart in the source and are kept apart here.
# What was measured:
# [1] = test system: Human lice, Pediculus humanus; conditions: in vivo
# [2] = test system: Louse eggs; conditions: for inhibition of embryo development before eyespot stage (in words): Table 10, Undeveloped; for Number of eggs Half-hatched / Number of eggs Undeveloped: Laurex CS 4.00%, GMS N/SE 2.00%; for Undeveloped % (in brackets, Abbott's correction): corrected; for Undeveloped %: uncorrected; for activity against louse eggs (in words): after correction for hatching failure in the Control Group
# [3] = Table 10, H2O vehicle, Laurex CS 4.00% (163 eggs), GMS N/SE 2.00% (176 eggs)
# [4] = Table 10, IPA/water vehicle, Laurex CS 4.00% (102 eggs), GMS N/SE 2.00% (145 eggs)
# [5] = Table 10, IPA/water vehicle, IPA/H2O mix 40.5
compound,measurement,setting,value
"CCCCCCCCCCCCCCCC[N+](C)(C)C.[Cl-] [Dehyquart ACA, Cetrimonium chloride]",Mortality % (Killed),[1],20 (10) %
same,Mortality % Total,[1],20 (10) %
same,Number of eggs,[1],34
same,Number of lice Killed,[1],2
same,Number of lice Moribund,[1],2
"CCCCCCCCCCCCCCCCCC(=O)OCC(O)CO (stereo not drawn) [GMS N/SE, Glyceryl stearate]",Number of lice Moribund,[1],0
same,pediculicidal activity (in words),[1],showed any activity
same,inhibition of embryo development before eyespot stage (in words),[2],activity to inhibit the development of the embryo
same,Number of eggs Hatched,[2]; [3],135
same,Number of eggs Half-hatched,"[2]; Table 10, H2O vehicle",7
same,Number of eggs Undeveloped,"[2]; Table 10, H2O vehicle",27
same,"Undeveloped % (in brackets, Abbott's correction)","[2]; Table 10, H2O vehicle",0%
same,Undeveloped %,"[2]; Table 10, H2O vehicle",15.3%
same,Number of eggs Hatched,[2]; [4],45
same,Number of eggs Half-hatched,"[2]; Table 10, IPA/water vehicle",1
same,Number of eggs Undeveloped,"[2]; Table 10, IPA/water vehicle",93
same,"Undeveloped % (in brackets, Abbott's correction)","[2]; Table 10, IPA/water vehicle",39.7%
same,Undeveloped %,[2]; [5],64.1%
same,activity against louse eggs (in words),[2]; Table 10,activity could be detected
"CCCCCCCCCCCCCCCCCCO [Laurex CS, Cetearyl alcohol]",pediculicidal activity (in words),[1],killed all lice and prevented them from laying any eggs
same,pediculicidal activity at different time exposures (in words),[1],some activity can be demonstrated from 30 minutes application
same,inhibition of embryo development before eyespot stage (in words),[2],activity to inhibit the development of the embryo
same,Number of eggs Hatched,[2]; [3],117
same,Number of eggs Half-hatched,"[2]; Table 10, H2O vehicle",1
same,Number of eggs Undeveloped,"[2]; Table 10, H2O vehicle",34
same,"Undeveloped % (in brackets, Abbott's correction)","[2]; Table 10, H2O vehicle",0%
same,Undeveloped %,"[2]; Table 10, H2O vehicle",20.9%
same,Number of eggs Hatched,[2]; [4],19
same,Number of eggs Half-hatched,"[2]; Table 10, IPA/water vehicle",1
same,Number of eggs Undeveloped,"[2]; Table 10, IPA/water vehicle",70
same,"Undeveloped % (in brackets, Abbott's correction)","[2]; Table 10, IPA/water vehicle",47.2%
same,Undeveloped %,[2]; [5],68.6%
same,kill of louse eggs,"[2]; after correction for Control Group, Table 10",> 50%
same,activity against louse eggs (in words),[2]; Table 10,activity could be detected
Liquid Paraffin [reference compound],Mortality % (Killed),[1],100 (100) %
same,Mortality % Total,[1],100 (100) %
Methylparaben & Propylparaben & Ethylparaben [Nipasept],Mortality % (Killed),[1],20 (15) %
same,Mortality % Total,[1],20 (15) %
Thymus Vulgaris (Thyme) extract [Thyme Extract],Mortality % (Killed),[1],21 (5) %
same,Mortality % Total,[1],21 (5) %
Urtica Dioica (Nettle) extract [Nettle Extract],Mortality % (Killed),[1],24 (14) %
same,Mortality % Total,[1],24 (14) %
